Where two headings read alike, the source gives them in different places.
Columns and labels:
Hepatitis B virus [1] = test: Secondary anti-Hepatitis B virus assay, quantitative polymerase chain reaction (intracellular DNA); type: cell-based, Hepatitis B virus (Hepatitis B-adr); conditions: for EC50 / EC90: Hepatitis B-adr, intracellular DNA by qPCR, vehicle DMSO, unit from conc. ranges in the 1st table; for EC50: read-out: EC50 - compound concentration that reduces viral replication by 50%; for EC90: read-out: EC90 - compound concentration that reduces viral replication by 90%; for Sl90 - CC50/EC90 / Sl50 - CC50/EC50: selectivity index
Method: (§1) Hepatitis B antiviral assays (Korba & Gerin, 1992, Antivir. Res. 19:55) are conducted using confluent cultures of 2.2.15 cells (genotype ayw; parental cell HepG2) maintained on 96-well flat-bottomed tissue culture plates (confluence in this culture system is required for active, high levels of Hepatitis B replication equivalent to that observed in chronically-infected individuals (Sells, et al., 1988, J. Virol. 62:2836; Korba and Gerin, 1992, Antivir. Res. 19:55). Cultures are treated for 7 days. Typically, 4 doses (10-fold or 3-fold steps), in triplicate are used. Hepatitis B DNA levels in the culture medium (representing Hepatitis B virion production) are assessed by quantitative blot hybridization 24 hrs. after the last treatment. Cytotoxicity is assessed by uptake of neutral red dye 24 hr. following the last treatment. Lamivudine (LMV) is used as the standard assay control, but other control compounds are also available.
EC50, EC90 and CC50 values are calculated by linear regression analysis (MS EXCEL®, QuattroPro®) using data combined from all treated cultures (Korba & Gerin, 1992, Antivir. Res. 19:55; Okuse, et al., 2005, Antivir. Res. 65:23). Standard deviations for EC50 and EC90 values are calculated from the standard errors generated by the regression analyses. EC50 and EC90 are drug concentrations at which a 2-fold, or a 10-fold depression of Hepatitis B DNA (relative to the average levels in untreated cultures), respectively, is observed. CC50 is the drug concentration at which a 2-fold lower level of neutral red dye uptake (relative to the average levels in untreated cultures) is observed. The Selectivity index (S.I.) is calculated as CC50/EC90 since at least a 3-fold depression of Hepatitis B DNA levels is typically required to achieve statistical significance in this assay system (Korba & Gerin, 1992, Antivir. Res. 19:55).
Confluent cultures of HepG2 2.2.15 cells maintained on 48-well flat-bottomed tissue culture plates are treated as described for the primary assay. Hepatitis B virion DNA levels in the culture medium and cytotoxicity are assessed as described for the primary assay. […] Res. 19:55). EC50, EC90, and S.I. values are calculated for both virion DNA and intracellular Hepatitis B DNA replication intermediates.

HepG2 2.2.15 = test: Cell Titer 96 (Toxicity) in the secondary assay; type: cell-based; conditions: HepG2 2.2.15 cells, unit from conc. ranges in the 1st table, read-out: CC50 - compound concentration that reduces cell viability by 50%
Hepatitis B virus [2] = test: Primary anti-Hepatitis B virus assay (primary screen); type: cell-based; conditions: data confirmed in the secondary assay
Method: as §1
EC50, EC90 and CC50 values are calculated by linear regression analysis (MS EXCEL®, QuattroPro®) using data combined from all treated cultures (Korba & Gerin, 1992, Antivir. Res. 19:55; Okuse, et al., 2005, Antivir. Res. 65:23). Standard deviations for EC50 and EC90 values are calculated from the standard errors generated by the regression analyses. […]

[3] = Cell Titer 96 (Toxicity) in the secondary assay; type: cell-based; conditions: human, HepG2 2.2.15 cells (confluent cultures), unit from conc. ranges in the 1st table, read-out: CC50 - compound concentration that reduces cell viability by 50%
[4] = HepG2 2.2.15 cells, listed as 3TC (1)
[5] = HepG2 2.2.15 cells, listed as 3TC (2)
[6] = HepG2 2.2.15 cells, listed as 3TC (3)
[7] = Hepatitis B virus, HepG2 2.2.15, HepG2 2.2.15 cells

| Structure (SMILES) | EC50 (Hepatitis B virus [1]; [4]) | EC90 (Hepatitis B virus [1]; [4]) | EC90 (Hepatitis B virus [1]; [5]) | EC50 (Hepatitis B virus [1]; [6]) | EC90 (Hepatitis B virus [1]; [6]) | Sl90 - CC50/EC90 (Hepatitis B virus [1]; HepG2 2.2.15 cells) | Sl50 - CC50/EC50 (Hepatitis B virus [1]; [4]) | Sl50 - CC50/EC50 (Hepatitis B virus [1]; [5]) | Sl50 - CC50/EC50 (Hepatitis B virus [1]; [6]) | EC50 (Hepatitis B virus [1]; [7]) | CC50 (HepG2 2.2.15; listed as 3TC (1)) | CC50 (HepG2 2.2.15; listed as 3TC (2)) | CC50 (HepG2 2.2.15; listed as 3TC (3)) | activity in the primary screen (Hepatitis B virus [2]) | Sl50 - CC50/EC50 (Hepatitis B virus [1]; HepG2 2.2.15 cells) | EC90 (Hepatitis B virus [1]; [7]) | CC50 at 7 days [3] |
| --- | --- | --- | --- | --- | --- | --- | --- | --- | --- | --- | --- | --- | --- | --- | --- | --- | --- |
| Nc1ccn([C@@H]2CS[C@H](CO)O2)c(=O)n1 [Compound 3TC, 2′,3′-dideoxy-3′-thiacytidine] | 40 nM | > 500 nM | > 1000 nM | 50 nM | > 2000 nM | 1 | >12 | >15 | >43 | 60 nM | > 500 nM | > 1000 nM | > 2000 nM | – | – | – | – |
| CCC[C@H](Nc1nc(-c2ccc(NC(=O)NCC)c(OC)c2)ncc1C)c1cccnc1 (stereo in doubt) [Compound 1A, 1-ethyl-3-(2-methoxy-4-(5-methyl-4-((1-(pyridine-3-yl)butyl)amino)pyrimidin-2-yl)phenyl)urea] | – | – | – | – | – | 1 | – | – | – | < 320 nM | – | – | – | active | >80 | 710 nM | 25400 nM |

Source: patent US20160303122A1, “TREATMENT OF HEPATITIS B VIRAL” (Southern Research Institute, priority 2015, published 2016)
